# Source: US20160003837A1, “BIOMARKERS FOR THE PREDICTION OF PRETERM BIRTH” (DUKE UNIVERSITY, priority 2013, published 2016)
# Key:
# HTR8/Sv cells = experiment: Calcimycin-induced apoptotic cell death, CELLTITER 96 Aqueous Non-Radioactive Cell Proliferation Assay; assay type: cell-based; conditions: pretreatment of HTR8/Sv cells; FIG. 1
# Excerpt: FIGS. 1A-1B are A) Western blot and B) graph showing calcium-induced cytrotrophoblast apoptotic cell death reduction by progesterone (R5020) pretreatment.
# (§1) Progesterone treatment also blunted TNF α-mediated induction of metalloproteinase 9 (MMP-9) activity (data not shown).
# caspase 3 cleavage = experiment: Caspase 3 cleavage following treatment with calcimycin; assay type: cell-based; conditions: data not shown
# PGRMC1 = PGRMC1 (Homo sapiens, UniProt O00264); conditions: cited from earlier work
# Sequence of PGRMC1 (O00264 whole entry): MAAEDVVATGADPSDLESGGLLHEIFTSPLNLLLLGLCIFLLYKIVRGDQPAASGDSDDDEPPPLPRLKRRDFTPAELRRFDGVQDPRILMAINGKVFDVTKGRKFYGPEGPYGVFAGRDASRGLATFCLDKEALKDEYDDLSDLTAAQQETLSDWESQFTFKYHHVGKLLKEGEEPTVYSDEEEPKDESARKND
# [1] = tested on: Matrix Metalloprotease 9 (MMP-9) activity in HTR8/SVneo cells; experiment: TNF-α-induced MMP-9 activity (zymography); assay type: cell-based; conditions: for reduction of TNFα-induced MMP-9 activity compared to stimulated controls: MPA pre-treatment
# Excerpt: FIGS. 4A-4C show the effect of knocking down PGRMC1 expression on the efficacy of medroxyprogesterone acetate (MPA) pretreatment in HTR8/SVneo cells.
# as §1
# The inhibitory effect of MPA pre-treatment on TNFα-induced activity was diminished when compared to cells treated with the scramble siRNA group (see FIGS. 4B&4C). […] However, in the PGRMC1 siRNA group this effect was lost with MPA pre-treatment reducing MMP-9 activity to a lesser degree when compared with stimulated controls (15%, p=0.100). Both the unstimulated (vehicle) control and the MPA groups are shown in the zymogram. The relative MMP-9 activity represents activity in excess of baseline for each experimental group. The unstimulated (vehicle) control only is represented graphically for both siRNA treatments. Experiments were replicated on 5 separate occasions. Data are mean+standard error of the mean.
# [2] = women at risk based on shortened cervical length; vaginal; cited from earlier work
# [3] = women with a history of spontaneous preterm birth; weekly intramuscular injection; cited from earlier work
smiles,measurement,setting,value
CCC(=O)[C@@]1(C)CC[C@H]2[C@@H]3CCC4=CC(=O)CCC4=C3CC[C@@]21C [R5020],protection against calcium-ionophore calcimycin-induced apoptotic cell death,HTR8/Sv cells,protected the cells
same,caspase 3 cleavage following treatment with calcimycin,caspase 3 cleavage,lower caspase 3 cleavage
same,binding to PGRMC1,PGRMC1,high binding
"CC(=O)O[C@]1(C(C)=O)CC[C@H]2[C@@H]3C[C@H](C)C4=CC(=O)CC[C@]4(C)[C@H]3CC[C@@]21C [MPA, medroxyprogesterone acetate]",reduction of TNFα-induced MMP-9 activity compared to stimulated controls,"[1]; PGRMC1 siRNA group, p=0.100",15%
same,reduction of TNFα-induced MMP-9 activity compared to stimulated controls,"[1]; scramble siRNA group, p<0.008",45%
"CC(=O)[C@H]1CC[C@H]2[C@@H]3CCC4=CC(=O)CC[C@]4(C)[C@H]3CC[C@]12C [Progesterone, progesterone]",TNF α-mediated induction of MMP-9 activity,[1]; data not shown,blunted
same,reduction of the risk of preterm birth,[2],45%
"CCCCCC(=O)O[C@]1(C(C)=O)CC[C@H]2[C@@H]3CCC4=CC(=O)CC[C@]4(C)[C@H]3CC[C@@]21C [17-OHPC, 17 alpha hydroxyprogesterone caproate]",reduction in preterm birth rates,[3],35%
